Laboratory results from paper PMC11720742, “The Ivermectin Related Compound Moxidectin Can Target Apicomplexan Importin α and Limit Growth of Malarial Parasites” (Cells, 2025).
Values joined by “and” are separate entries in the source; they are usually repeats but may differ in a detail not shown here. Equal entries are not always repeated. Where two headings read alike, the source gives them in different places.

Legend:
P. falciparum 3D7 strain = experiment: Drug susceptibility assay for P. falciparum using HRP2 sandwich ELISA; assay type: cell-based; details: read-out: IC50 inhibition of P. falciparum parasites in culture
Protocol: The P. falciparum 3D7 strain was cultured and maintained according to the standard procedures with minor modifications. Cultures were maintained in RPMI 1640 (GibcoTM, Waltham, MA, USA) supplemented with 0.5% Albumax (GibcoTM), 50 mg/L hypoxanthine (Sigma-Aldrich), 2 gm/L D-glucose (Sigma-Aldrich), 2 gm/L sodium bicarbonate (Sigma-Aldrich), and 56 mg/L of gentamicin (Abbott, Chicago, IL, USA). Blood for parasite cultures was procured from volunteer blood donors with approval from the Institute Ethical Committee.
Samples from the continuous culture of P. falciparum were synchronised to obtain predominant rings of 0.25% parasitemia at 3% haematocrit. Compounds were made at a stock concentration of 10 mM in 100% DMSO, with the FDA-approved antimalarial dihydroartemisinin (a kind gift from IPCA Laboratories, Mumbai, India) as a control. Compound dilutions were made in RPMI 1640 to obtain the desired final test concentrations for the IC50 analysis.
The HRP2-sandwich ELISA assay was performed according to the standard protocol. Briefly, the PfHRP2 protein concentration in the culture wells, indicative of the level of parasitemia, is measured using a sandwich ELISA technique. Serial 2-fold dilutions of compounds (25 µL/well) were manually dispensed into standard 96-well microculture plates (Eppendorf). Subsequently, 200 µL of P. falciparum culture at 0.25% parasitemia (3% haematocrit) was added to each well. The plates were then incubated for 72 h at 37 °C in 5% CO2 in a humidified incubator. Plates were then subjected to freeze–thaw to achieve complete haemolysis. PfHRP2 levels in control and test samples were measured using a horseradish peroxidase enzyme-linked immunosorbent assay at 450 nm. GraphPad Prism 9.2.0 was used to perform non-linear regression analysis to determine the IC50 values.
(§1) Non-linear regression analysis was performed in GraphPad Prism 9.2.0 (San Diego, CA, USA) to fit four parameter dose–response curves using the formula: y = a + ((b − a)/(1 + 10^(Log(c) − x) × d)), where a and b are the minimum and maximum asymptotes respectively, c is the half-maximal inhibitory concentration value (IC50), and d is the slope at the steepest part of the curve (the Hill slope).

PfIMPα [1] = target: T1, PfIMPα (Plasmodium falciparum, UniProt Q8IAW0); experiment: Far-UV CD spectroscopy, PfIMPα; assay type: binding; details: 30 or 80 μM compound
T1 sequence (Q8IAW0 entry or part of it): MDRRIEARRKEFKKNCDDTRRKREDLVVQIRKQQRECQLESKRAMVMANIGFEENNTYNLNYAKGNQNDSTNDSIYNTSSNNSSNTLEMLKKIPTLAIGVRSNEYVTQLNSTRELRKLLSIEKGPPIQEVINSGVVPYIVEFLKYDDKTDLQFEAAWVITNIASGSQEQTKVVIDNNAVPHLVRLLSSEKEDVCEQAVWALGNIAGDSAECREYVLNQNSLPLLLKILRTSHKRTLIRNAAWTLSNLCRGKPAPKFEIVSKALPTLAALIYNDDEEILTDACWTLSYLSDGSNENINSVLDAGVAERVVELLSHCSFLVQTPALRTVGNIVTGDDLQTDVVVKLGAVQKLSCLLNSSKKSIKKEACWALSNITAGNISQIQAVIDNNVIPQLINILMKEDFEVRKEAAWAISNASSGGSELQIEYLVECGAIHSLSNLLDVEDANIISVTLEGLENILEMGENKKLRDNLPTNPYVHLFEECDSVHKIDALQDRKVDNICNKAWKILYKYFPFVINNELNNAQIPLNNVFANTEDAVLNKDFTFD
Protocol: (§2) CD spectroscopy experiments were carried out to assess direct binding of moxidectin and ivermectin to different IMPαs as described. CD spectra at […] protein concentration were recorded from 200–260 nm using a Jasco CD spectrometer (Jasco, Easton, MD, USA) in the absence and presence of 30 or 80 μM ivermectin or moxidectin, with percentage α-helix content estimated from the ellipticity at 222 nm as described using the CD Multivariate secondary structure estimation analysis program.

TgIMPα:MmIMPβ1 = TgIMPα:MmIMPβ1 (Toxoplasma gondii, UniProt A0A125YID0); experiment: AlphaScreen binding assay, inhibition of TgIMPα binding to MmIMPβ1
Chain of TgIMPα:MmIMPβ1 (P70168 whole entry, the tested form may be a part): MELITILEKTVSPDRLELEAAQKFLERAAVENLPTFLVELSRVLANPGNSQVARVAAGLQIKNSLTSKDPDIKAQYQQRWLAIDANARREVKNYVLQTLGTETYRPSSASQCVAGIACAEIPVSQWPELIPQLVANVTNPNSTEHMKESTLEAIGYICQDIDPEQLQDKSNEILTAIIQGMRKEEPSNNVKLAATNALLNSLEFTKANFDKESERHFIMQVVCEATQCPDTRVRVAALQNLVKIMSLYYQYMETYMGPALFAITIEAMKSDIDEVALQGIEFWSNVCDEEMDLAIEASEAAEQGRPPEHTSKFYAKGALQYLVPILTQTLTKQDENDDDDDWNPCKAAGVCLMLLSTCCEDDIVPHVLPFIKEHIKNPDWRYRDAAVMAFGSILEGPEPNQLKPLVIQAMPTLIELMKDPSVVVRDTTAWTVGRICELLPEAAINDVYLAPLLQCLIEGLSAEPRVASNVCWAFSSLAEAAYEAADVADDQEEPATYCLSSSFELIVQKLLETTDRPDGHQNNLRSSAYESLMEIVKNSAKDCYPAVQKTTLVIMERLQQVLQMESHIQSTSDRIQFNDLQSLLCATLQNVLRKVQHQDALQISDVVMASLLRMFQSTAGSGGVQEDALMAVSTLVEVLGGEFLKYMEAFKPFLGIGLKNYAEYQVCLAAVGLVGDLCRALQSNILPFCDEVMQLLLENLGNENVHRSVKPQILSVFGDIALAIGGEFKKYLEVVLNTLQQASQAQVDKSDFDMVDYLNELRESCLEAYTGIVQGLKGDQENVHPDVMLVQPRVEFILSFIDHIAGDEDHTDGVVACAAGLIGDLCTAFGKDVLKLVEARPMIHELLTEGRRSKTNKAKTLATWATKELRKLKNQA
Chain of TgIMPα:MmIMPβ1 (A0A125YID0 entry or part of it): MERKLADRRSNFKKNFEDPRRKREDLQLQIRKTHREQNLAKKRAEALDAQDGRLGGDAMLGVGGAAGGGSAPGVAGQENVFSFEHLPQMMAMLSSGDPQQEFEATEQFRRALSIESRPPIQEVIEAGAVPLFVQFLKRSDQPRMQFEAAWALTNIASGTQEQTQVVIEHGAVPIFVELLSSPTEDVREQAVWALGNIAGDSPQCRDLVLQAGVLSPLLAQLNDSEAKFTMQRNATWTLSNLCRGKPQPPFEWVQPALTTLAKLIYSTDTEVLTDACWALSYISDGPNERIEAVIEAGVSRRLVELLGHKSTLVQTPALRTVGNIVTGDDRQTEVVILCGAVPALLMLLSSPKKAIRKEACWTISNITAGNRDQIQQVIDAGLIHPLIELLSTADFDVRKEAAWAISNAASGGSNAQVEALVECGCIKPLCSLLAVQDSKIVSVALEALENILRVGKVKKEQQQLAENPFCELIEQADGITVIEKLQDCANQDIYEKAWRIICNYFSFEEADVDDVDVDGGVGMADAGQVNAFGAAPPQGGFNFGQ
Protocol: (§3) IC50 analysis was performed in quadruplicate using an AlphaScreen binding assay as previously, using bacterially expressed glutathione S-transferase (GST)-C-terminally tagged PfIMPα and TgIMPα proteins, as well as SV40 T-ag-NLS-GFP fusion protein and MmIMPβ1 [11, 41]. As previously, nickel-acceptor and streptavidin-donor beads were used. The AlphaScreen signal was measured on a Perkin Elmer plate reader, and IC50 plots drawn using GraphPad Prism 9.0.2 (San Diego, CA, USA).
as §1

PfIMPα [2] = target: T1, PfIMPα; experiment: Intrinsic tryptophan fluorescence assay, PfIMPα; assay type: binding
Protocol: (§4) Tryptophan fluorescence spectroscopy experiments were performed using a JASCO Fluorescence Spectrophotometer (JASCO, Hachioji, Tokyo, Japan) (0.5 mL quartz cuvette), with a fixed excitation wavelength of 295 nm and emission spectra collected between 310 and 400 nm with a slit width of 5 nm at 25 °C. Increasing concentrations of compounds in DMSO were incubated with the IMPαs (1 µM) in PBS for 5 min at room temperature prior to measurement. Data from three independent experiments were analysed using GraphPad Prism 10 (San Diego, CA, USA). Non-linear regression analysis was used to fit the one-site binding curves using the equation: y = Bmax * x/(Kd + x), where Bmax represents the maximum binding capacity and Kd is the dissociation constant, reflecting the concentration of ligand at which half-maximal binding is achieved.

MmIMPα [3] = target: T2, MmIMPα (Mus musculus, UniProt P52293); experiment: Intrinsic tryptophan fluorescence assay, MmIMPα; assay type: binding; details: pooled, mean ± SEM (n = 3); IMPα 1 µM, 340 nm
T2 construct: GST; made in house
Protocol: as §4

[4] = MTT assay for host cell cytotoxicity; assay type: cell-based; details: human, HFF cells (freshly confluent), mean ± SD (n = 2)
Protocol: The MTT assay was used to measure the cytotoxicity of the small molecules against the HFF cells as described. Briefly, freshly confluent HFF cells were incubated for 48 h in a 96-well culture plate at 37 °C in a humidified incubator (5% CO2 atmosphere) in the presence of increasing concentrations of compounds (total volume 200 uL). A 10 μL quantity of MTT reagent (Sigma Aldrich) prepared in complete DMEM medium was then added to each well, and incubation continued for a further 3 h. 150 μL of the medium containing the MTT reagent was then removed from each well and replaced with 150 μL DMSO. Plates were then incubated room temperature in the dark for 20 min, after which absorbance for each well was measured at 570 nm. Data were analysed in GraphPad Prism 9 software.

PfIMPα:TGS1-NLS-GFP = PfIMPα:TGS1-NLS-GFP (Plasmodium falciparum, UniProt Q8IAW0); experiment: AlphaScreen binding assay, inhibition of PfIMPα binding to TGS1-NLS-GFP; design: species or system P. falciparum
Chain of PfIMPα:TGS1-NLS-GFP (Q8IAW0 entry or part of it): as the sequence (Q8IAW0 entry or part of it) above
TgIMPα:T-ag-NLS-GFP = TgIMPα:T-ag-NLS-GFP (Toxoplasma gondii, UniProt A0A125YID0); experiment: AlphaScreen binding assay, inhibition of TgIMPα binding to T-ag-NLS-GFP
Chain of TgIMPα:T-ag-NLS-GFP (A0A125YID0 entry or part of it): as the sequence (A0A125YID0 entry or part of it) above
Protocol: as §3, §1

MmIMPα [5] = target: T2, MmIMPα; experiment: Far-UV CD spectroscopy, MmIMPα; assay type: binding; details: 30 or 80 μM compound
Protocol: as §2

TgIMPα [6] = target: T3, TgIMPα (Toxoplasma gondii, UniProt A0A125YID0); experiment: Intrinsic tryptophan fluorescence assay, TgIMPα; assay type: binding
T3 sequence (A0A125YID0 entry or part of it): as above
Protocol: as §4

MmIMPα:MmIMPβ1 = target: T4, MmIMPα:MmIMPβ1 (Mus musculus, UniProt P52293); experiment: AlphaScreen binding assay, inhibition of MmIMPα binding to MmIMPβ1
T4 construct: GST; made in house

TgIMPα [7] = target: T3, TgIMPα; experiment: Far-UV CD spectroscopy, TgIMPα; assay type: binding; details: 30 or 80 μM compound
Protocol: as §2

MmΔIBBIMPα:T-ag-NLS-GFP = target: T5, MmΔIBBIMPα:T-ag-NLS-GFP (Mus musculus, UniProt P52293); experiment: AlphaScreen binding assay, inhibition of MmΔIBBIMPα binding to T-ag-NLS-GFP
T5 construct: made in house

PfIMPα:MmIMPβ1 = PfIMPα:MmIMPβ1 (Plasmodium falciparum, UniProt Q8IAW0); experiment: AlphaScreen binding assay, inhibition of PfIMPα binding to MmIMPβ1
Chain of PfIMPα:MmIMPβ1 (Q8IAW0 entry or part of it): as the sequence (Q8IAW0 entry or part of it) above
Chain of PfIMPα:MmIMPβ1 (P70168 whole entry, further chain): as the sequence (P70168 whole entry, the tested form may be a part) above
Protocol: as §3, §1

[8] = system: T. gondii RH strain expressing a luciferase reporter (RH-Fluc) tachyzoites; experiment: T. gondii tachyzoite growth inhibition assay (luciferase) in HFF host cells; assay type: cell-based; details: 48 h, luminescence, mean ± SD (n = 3)
Protocol: A T. gondii RH strain expressing a luciferase reporter (RH-Fluc) was used to assess the effect of the inhibitors on growth as described. T. gondii tachyzoites were maintained and cultured at 37 °C in 5% CO2 in a humidified incubator using primary human foreskin fibroblasts (HFF, ATCC) maintained in Dulbecco’s modified Eagle medium (DMEM) (GibcoTM, Waltham, MA, USA) supplemented with 3.7 g/L sodium bicarbonate and 2.38 g/L HEPES, 10% Cosmic Calf serum (HycloneTM, Logan, UT, USA) and 20 mg/L gentamicin [46, 47]. Growth inhibition was monitored by luminescence, where 100 μL of culture medium without or with inhibitors, followed by 100 µL of DMEM containing 5000 parasites, were added to confluent monolayers of HFF cells in 96-well culture dishes (Eppendorf, Hamburg, Germany). After 48 h, 150 µL of the culture medium was discarded from each well, and 10 µL lysis buffer was added to lyse the parasites, followed by 50 μL of 2× luciferase assay reagent (Promega, Madison, WI, USA). Luminescence was then measured directly for 10 s using a Varioskan™ LUX multimode microplate reader (Thermo Fisher Scientific, Waltham, MA, USA). […]

[9] = Plasmodium falciparum, 3D7, 72 h, asexual stages, pooled, mean ± SD (n = 3)
[10] = Plasmodium falciparum, 3D7, 72 h, single typical experiment of Figure 5, duplicate
[11] = pooled, mean ± SEM (n = 3), MmIMPβ1 30 nM, IMPα 30 nM
[12] = single typical experiment of Figure 2, quadruplet wells
[13] = pooled, mean ± SEM (n = 3), IMPα 1 µM, 340 nm
[14] = single typical set of measurements, Figure 4b
[15] = single experiment of Figure 1b, quadruplet wells

`C[C@H]1[C@@H](O)O[C@@H]2O[C@@]3(C)CC[C@H]4[C@H](C)CC[C@@H]1[C@@]24OO3` [DHA, dihydroartemisinin] showed an IC50 (P. falciparum 3D7 strain; [9]) of 0.001 ± 0.0005 µM and an IC50 (P. falciparum 3D7 strain; [10]) of 0.0007 µM.
For `CO/N=C1\C[C@]2(C[C@@H]3C[C@@H](C/C=C(\C)C[C@@H](C)/C=C/C=C4\CO[C@@H]5[C@H](O)C(C)=C[C@@H](C(=O)O3)[C@]45O)O2)O[C@H](/C(C)=C/C(C)C)[C@H]1C` [Moxidectin, moxidectin], the “Effect on α-helicity of PfIMPα (CD spectra)” value (PfIMPα [1]) was “concentration-dependent reduction in α-helicity”, the IC50 (TgIMPα:MmIMPβ1; [11]) was 2.7 ± 0.2 µM and the IC50 (TgIMPα:MmIMPβ1; [12]) was 3.2 µM. For the same molecule, the Kd (PfIMPα [2]; [13]) was 7.8 ± 1.2 µM, the Kd (PfIMPα [2]; [14]) was 8.3 µM and the Kd (MmIMPα [3]) was 4.1 ± 0.2 µM. It also gave a CC50 at 48 h [4] of ~10 µM, an IC50 (PfIMPα:TGS1-NLS-GFP; pooled, mean ± SEM (n = 3), IMPα 5 nM, NLS protein 30 nM) of 4.8 ± 0.4 µM and an IC50 (PfIMPα:TGS1-NLS-GFP; [15]) of 4.6 µM. The IC50 (TgIMPα:T-ag-NLS-GFP; pooled, mean ± SEM (n = 3), IMPα 5 nM, NLS protein 30 nM, read-out: IC50 inhibition of TgIMPα:Tag-NLS-GFP binding) was 3.8 ± 0.8 µM, the IC50 (TgIMPα:T-ag-NLS-GFP; [15]) was 3.6 µM and the “Effect on α-helicity of MmIMPα (CD spectra)” value (MmIMPα [5]) was “concentration-dependent reduction in α-helicity”. The Kd (TgIMPα [6]; [13]) was 19 ± 2.2 µM, the Kd (TgIMPα [6]; [14]) was 19.3 µM and the IC50 (MmIMPα:MmIMPβ1; [11]) was ~4 µM and 4 µM. The IC50 (MmIMPα:MmIMPβ1; [12]) was 4.7 µM, the “Effect on α-helicity of TgIMPα (CD spectra)” value (TgIMPα [7]) was “concentration-dependent reduction in α-helicity” and the IC50 (MmΔIBBIMPα:T-ag-NLS-GFP; pooled, mean ± SEM (n = 3), IMPα 5 nM, NLS protein 30 nM, read-out: IC50 inhibition of MmΔIBBIMPα:Tag-NLS-GFP binding) was 3.6 ± 0.5 µM. For the same molecule, the IC50 (MmΔIBBIMPα:T-ag-NLS-GFP; [15]) was 2.8 µM, the IC50 (PfIMPα:MmIMPβ1; [11]) was 3.4 ± 0.4 µM and the IC50 (PfIMPα:MmIMPβ1; [12]) was 3.8 µM. For the same molecule, the IC50 (P. falciparum 3D7 strain; [9]) was 1 µM, the IC50 (P. falciparum 3D7 strain; [10]) was 0.8 µM and the IC50 (P. falciparum 3D7 strain; asexual stages, 72 h, pooled, mean ± SD (n = 3)) was 0.9 ± 0.1 µM. It also gave an IC50 [8] of 35 ± 3.1 µM and an IC50 ([8]; Toxoplasma gondii) of 30 to 35 µM.
